We go through 20 molecules from ChEMBL document CHEMBL1143778, “Studies towards the identification of a new generation of atypical antipsychotic agents” (Bioorg Med Chem Lett, 2007).

The structures appear in SMILES notation. Several values for one entry are separate records, joined by “and”; a condition that tells them apart may be missing. Equal values may be shown once.

The target of series [1] is T1, 5-hydroxytryptamine receptor 2A (Homo sapiens, UniProt P28223). As to the kind of experiment: Displacement of radioligand from human recombinant 5HT2A receptor.
The target in series [2] is T2, D(3) dopamine receptor (Homo sapiens, UniProt P35462). As to the kind of experiment: Displacement of [125I]iodosulpiride from human recombinant dopamine D3 receptor expressed in CHO cells. The class given is cell-based.
Series [3] has as its target T3, D(2) dopamine receptor (Homo sapiens, UniProt P14416). As to the kind of experiment: Displacement of [125I]iodosulpiride from human recombinant dopamine D2 receptor expressed in CHO cells. Type of series: cell-based.
Series [4] concerns the target T4, 5-hydroxytryptamine receptor 6 (Homo sapiens, UniProt P50406). As to the kind of experiment: Displacement of radioligand from human recombinant 5HT6 receptor.
Series [5] concerns the target T5, 5-hydroxytryptamine receptor 2C (Homo sapiens, UniProt P28335).
T5 sequence (P28335 whole entry): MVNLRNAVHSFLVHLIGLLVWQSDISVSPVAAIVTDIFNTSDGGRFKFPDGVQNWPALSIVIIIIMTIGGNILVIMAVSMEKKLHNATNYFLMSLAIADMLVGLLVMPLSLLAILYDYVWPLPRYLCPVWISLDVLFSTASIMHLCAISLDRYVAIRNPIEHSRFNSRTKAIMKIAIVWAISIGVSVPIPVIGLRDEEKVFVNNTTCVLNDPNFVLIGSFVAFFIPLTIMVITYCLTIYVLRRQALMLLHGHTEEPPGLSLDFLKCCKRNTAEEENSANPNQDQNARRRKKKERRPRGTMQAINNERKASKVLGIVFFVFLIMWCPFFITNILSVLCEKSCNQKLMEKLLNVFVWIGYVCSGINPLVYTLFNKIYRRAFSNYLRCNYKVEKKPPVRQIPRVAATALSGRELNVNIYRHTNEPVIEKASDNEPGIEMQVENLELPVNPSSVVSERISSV
In words: Displacement of radioligand from human recombinant 5HT2C receptor.

For a further series, the target named is Cytochrome P450 2C19 (Homo sapiens, UniProt P33261). In words: Inhibition of CYP2C19. The class given is ADME.
The next series addresses Cytochrome P450 2D6 (Homo sapiens, UniProt P10635). In words: Inhibition of CYP2D6. The class given is ADME.
Another series has as its target Cytochrome P450 2C9 (Homo sapiens, UniProt P11712). In words: Inhibition of CYP2C9. The class given is ADME.
The next series has as its target Cytochrome P450 3A4 (Homo sapiens, UniProt P08684). As to the kind of experiment: Inhibition of CYP3A4. The class given is ADME.
The target of another series is T6, Cytochrome P450 1A2 (Homo sapiens, UniProt P05177).
T6 sequence (P05177 whole entry): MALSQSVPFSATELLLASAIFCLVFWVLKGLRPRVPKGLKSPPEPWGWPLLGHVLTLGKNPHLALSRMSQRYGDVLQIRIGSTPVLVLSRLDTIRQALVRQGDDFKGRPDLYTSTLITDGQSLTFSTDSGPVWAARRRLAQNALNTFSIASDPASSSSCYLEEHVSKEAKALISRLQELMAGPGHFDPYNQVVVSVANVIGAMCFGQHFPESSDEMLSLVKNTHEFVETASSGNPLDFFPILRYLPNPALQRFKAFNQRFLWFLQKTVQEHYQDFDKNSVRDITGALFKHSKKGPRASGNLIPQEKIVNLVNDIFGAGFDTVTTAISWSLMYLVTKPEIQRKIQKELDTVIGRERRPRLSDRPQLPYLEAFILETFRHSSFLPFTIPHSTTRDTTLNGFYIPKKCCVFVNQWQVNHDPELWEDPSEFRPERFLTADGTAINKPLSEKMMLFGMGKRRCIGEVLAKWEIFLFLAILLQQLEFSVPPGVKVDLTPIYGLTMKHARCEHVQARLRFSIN
As to the kind of experiment: Inhibition of CYP1A2. The class given is ADME.

Series [6] has as its system Rattus norvegicus. In words: Reversal of amphetamine-induced hyperactivity in orally dosed rat. The class given is functional. As to conditions: po; call rule not given here.
Series [7] has as its system Rattus norvegicus. In words: Toxicity assessed as induction of catalepsy in rat model of extra-pyramidal side effect up to 100 mg/kg, po. Type of series: organism-based. On the set-up: dose 100 mg/kg, route oral. The following applies: in vivo.
Series [8] concerns the target T5, 5-hydroxytryptamine receptor 2C. As to the kind of experiment: Agonist activity at human 5HT2C receptor by FLIPR assay. The class given is functional.
For series [9], the target named is T4, 5-hydroxytryptamine receptor 6. As to the kind of experiment: Agonist activity at human 5HT6 receptor by cAMP assay. The class given is functional.
Series [10] deals with T1, 5-hydroxytryptamine receptor 2A. As to the kind of experiment: Agonist activity at human 5HT2A receptor by FLIPR assay. The class given is functional.
The target in series [11] is T3, D(2) dopamine receptor. As to the kind of experiment: Agonist activity at human dopamine D2 receptor by [35S]GTPgammaS binding assay. Type of series: functional.
Series [12] deals with T2, D(3) dopamine receptor. In words: Agonist activity at human dopamine D3 receptor by [35S]GTP-gamma-S binding assay. Type of series: functional.

Chain of Cytochrome P450 2C9 (P11712 whole entry): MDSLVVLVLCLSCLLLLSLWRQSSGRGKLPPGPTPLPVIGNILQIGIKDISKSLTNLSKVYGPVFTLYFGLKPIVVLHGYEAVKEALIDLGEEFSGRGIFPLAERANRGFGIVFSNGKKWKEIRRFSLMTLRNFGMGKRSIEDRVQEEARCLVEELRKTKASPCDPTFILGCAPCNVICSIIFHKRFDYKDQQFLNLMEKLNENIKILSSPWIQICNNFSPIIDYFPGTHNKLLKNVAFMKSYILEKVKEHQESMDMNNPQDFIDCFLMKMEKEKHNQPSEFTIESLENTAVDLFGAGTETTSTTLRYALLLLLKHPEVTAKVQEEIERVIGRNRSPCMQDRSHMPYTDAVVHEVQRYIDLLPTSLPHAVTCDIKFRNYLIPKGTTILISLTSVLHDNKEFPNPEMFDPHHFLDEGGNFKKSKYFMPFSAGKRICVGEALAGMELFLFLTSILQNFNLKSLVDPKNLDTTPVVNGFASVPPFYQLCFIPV
T1 sequence (P28223 whole entry): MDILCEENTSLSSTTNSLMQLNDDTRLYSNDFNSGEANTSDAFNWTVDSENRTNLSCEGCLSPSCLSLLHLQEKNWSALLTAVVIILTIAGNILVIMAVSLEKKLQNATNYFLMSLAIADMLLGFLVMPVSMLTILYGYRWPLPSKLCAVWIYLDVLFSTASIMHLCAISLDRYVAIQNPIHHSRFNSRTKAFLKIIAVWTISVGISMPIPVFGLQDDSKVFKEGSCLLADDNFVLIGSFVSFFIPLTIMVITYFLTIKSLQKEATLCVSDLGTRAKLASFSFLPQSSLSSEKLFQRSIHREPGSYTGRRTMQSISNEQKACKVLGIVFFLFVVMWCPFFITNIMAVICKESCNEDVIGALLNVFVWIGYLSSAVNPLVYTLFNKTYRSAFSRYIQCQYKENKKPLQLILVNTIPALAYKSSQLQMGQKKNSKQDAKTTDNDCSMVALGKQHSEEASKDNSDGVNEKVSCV
Chain of Cytochrome P450 2C19 (P33261 whole entry): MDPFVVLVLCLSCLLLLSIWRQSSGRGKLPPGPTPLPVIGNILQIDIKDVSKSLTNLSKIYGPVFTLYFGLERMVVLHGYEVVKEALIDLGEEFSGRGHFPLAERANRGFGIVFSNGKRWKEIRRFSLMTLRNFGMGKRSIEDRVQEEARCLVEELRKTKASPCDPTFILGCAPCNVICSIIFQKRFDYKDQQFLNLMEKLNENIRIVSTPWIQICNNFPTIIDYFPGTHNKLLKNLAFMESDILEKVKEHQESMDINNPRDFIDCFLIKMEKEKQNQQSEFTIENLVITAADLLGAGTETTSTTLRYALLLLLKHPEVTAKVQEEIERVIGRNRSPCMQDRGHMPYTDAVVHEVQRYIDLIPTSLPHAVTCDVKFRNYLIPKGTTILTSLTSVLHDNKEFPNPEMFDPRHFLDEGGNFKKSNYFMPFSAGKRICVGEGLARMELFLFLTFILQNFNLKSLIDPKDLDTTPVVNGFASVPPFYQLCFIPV
Chain of Cytochrome P450 3A4 (P08684 whole entry): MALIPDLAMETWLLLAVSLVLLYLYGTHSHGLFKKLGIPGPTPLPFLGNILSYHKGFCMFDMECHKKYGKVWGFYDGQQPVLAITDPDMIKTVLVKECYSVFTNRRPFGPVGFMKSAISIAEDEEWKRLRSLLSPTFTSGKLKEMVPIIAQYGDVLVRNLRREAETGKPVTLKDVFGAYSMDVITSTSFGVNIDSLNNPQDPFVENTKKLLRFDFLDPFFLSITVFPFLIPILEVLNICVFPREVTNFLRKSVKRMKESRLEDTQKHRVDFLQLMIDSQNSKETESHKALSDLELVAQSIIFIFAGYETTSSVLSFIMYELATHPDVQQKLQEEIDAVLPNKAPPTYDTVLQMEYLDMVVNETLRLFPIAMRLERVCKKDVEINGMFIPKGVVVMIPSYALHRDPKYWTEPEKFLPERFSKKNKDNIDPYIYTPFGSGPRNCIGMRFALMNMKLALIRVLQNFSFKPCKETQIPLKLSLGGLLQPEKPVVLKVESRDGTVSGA
T3 sequence (P14416 whole entry): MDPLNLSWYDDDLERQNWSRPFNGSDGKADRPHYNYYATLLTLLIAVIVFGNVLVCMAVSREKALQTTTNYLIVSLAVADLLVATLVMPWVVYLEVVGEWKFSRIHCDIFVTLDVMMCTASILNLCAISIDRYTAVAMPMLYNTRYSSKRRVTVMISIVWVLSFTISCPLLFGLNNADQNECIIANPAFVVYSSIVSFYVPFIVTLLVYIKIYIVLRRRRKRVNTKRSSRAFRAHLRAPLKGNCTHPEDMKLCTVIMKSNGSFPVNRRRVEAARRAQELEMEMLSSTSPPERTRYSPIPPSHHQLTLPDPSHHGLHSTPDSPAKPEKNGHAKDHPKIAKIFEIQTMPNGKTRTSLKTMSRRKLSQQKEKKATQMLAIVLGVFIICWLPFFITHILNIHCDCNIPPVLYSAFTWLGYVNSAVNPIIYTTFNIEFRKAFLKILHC
Chain of Cytochrome P450 2D6 (P10635 whole entry): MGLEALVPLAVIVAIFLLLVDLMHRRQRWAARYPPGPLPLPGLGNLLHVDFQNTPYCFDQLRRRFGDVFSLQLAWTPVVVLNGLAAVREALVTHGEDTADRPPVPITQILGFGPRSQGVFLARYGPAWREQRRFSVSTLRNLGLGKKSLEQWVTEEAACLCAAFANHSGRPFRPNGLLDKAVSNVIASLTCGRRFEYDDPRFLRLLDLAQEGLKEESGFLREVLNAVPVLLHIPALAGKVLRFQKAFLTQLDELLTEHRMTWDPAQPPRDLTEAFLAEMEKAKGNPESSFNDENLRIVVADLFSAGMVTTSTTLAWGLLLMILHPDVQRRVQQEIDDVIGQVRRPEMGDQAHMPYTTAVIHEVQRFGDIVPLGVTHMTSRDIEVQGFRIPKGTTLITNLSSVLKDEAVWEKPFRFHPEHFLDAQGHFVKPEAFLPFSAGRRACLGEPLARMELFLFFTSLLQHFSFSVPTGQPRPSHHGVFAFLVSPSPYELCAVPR
T4 sequence (P50406 whole entry): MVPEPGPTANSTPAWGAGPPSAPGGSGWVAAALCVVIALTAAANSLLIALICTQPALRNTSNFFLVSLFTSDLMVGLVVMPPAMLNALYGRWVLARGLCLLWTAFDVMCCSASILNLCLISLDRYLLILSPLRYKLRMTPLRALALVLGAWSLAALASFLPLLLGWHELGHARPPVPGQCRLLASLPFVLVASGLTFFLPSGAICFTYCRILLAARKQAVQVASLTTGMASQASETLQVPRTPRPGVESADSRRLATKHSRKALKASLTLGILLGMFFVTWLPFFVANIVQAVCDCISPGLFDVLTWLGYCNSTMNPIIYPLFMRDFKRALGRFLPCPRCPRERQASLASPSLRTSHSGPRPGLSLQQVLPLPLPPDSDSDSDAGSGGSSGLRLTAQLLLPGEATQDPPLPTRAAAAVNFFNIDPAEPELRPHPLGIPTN
T2 sequence (P35462 whole entry): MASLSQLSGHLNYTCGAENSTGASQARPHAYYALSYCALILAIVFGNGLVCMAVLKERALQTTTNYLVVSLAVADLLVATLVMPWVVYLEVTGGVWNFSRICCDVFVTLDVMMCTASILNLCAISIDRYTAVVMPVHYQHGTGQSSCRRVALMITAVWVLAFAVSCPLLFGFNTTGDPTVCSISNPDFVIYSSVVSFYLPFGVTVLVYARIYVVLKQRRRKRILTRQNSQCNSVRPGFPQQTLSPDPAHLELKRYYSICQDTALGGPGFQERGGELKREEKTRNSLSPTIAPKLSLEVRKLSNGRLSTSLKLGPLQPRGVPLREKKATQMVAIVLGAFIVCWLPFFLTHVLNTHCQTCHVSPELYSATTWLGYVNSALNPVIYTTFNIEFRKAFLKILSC

Consider `Cc1cc(S(=O)(=O)Nc2ccc3c(c2)CCN(C)CC3)ccc1-c1ccc(Cl)cc1`, for which the Ki in series [1] is 126 nM; on D(3) dopamine receptor [2], 6.31 nM; at D(2) dopamine receptor [3], 31.6 nM; in series [4], 5.01 nM; in series [5], 50.1 nM.

`Cc1ccc(-c2ccc(S(=O)(=O)Nc3ccc4c(c3)CCN(C)CC4)cc2)s1`: the Ki in series [1] was 50.1 nM; at D(3) dopamine receptor [2], 25.1 nM; on D(2) dopamine receptor [3] it was 316 nM; in series [4], 6.31 nM; in [5], 12.6 nM.

In the case of `Cc1noc(C)c1-c1ccc(S(=O)(=O)Nc2ccc3c(c2)CCN(C)CC3)cc1`, the Ki in [1] was 1260 nM; on D(3) dopamine receptor [2] it was 15.8 nM; on D(2) dopamine receptor [3] it was 100 nM; in [4], 10 nM; in [5], 398 nM.

For `COc1cc2c(cc1NS(=O)(=O)c1ccc(-c3ccc(Cl)cc3)cc1)CCN(C)CC2`, the Ki in series [1] is 25.1 nM; on D(3) dopamine receptor [2], 0.794 nM; at D(2) dopamine receptor [3] it was 3.98 nM; in [4], 10 nM; in series [5], 39.8 nM.

For `CCCCc1ccc(S(=O)(=O)Nc2ccc3c(c2)CNC3)cc1`, the Ki at D(3) dopamine receptor [2] is 39.8 nM; on D(2) dopamine receptor [3], 794 nM; in [4], 50.1 nM.

For `CCCCc1ccc(S(=O)(=O)Nc2ccc3c(c2)CN(C)CC3)cc1`, the results for the Ki on D(3) dopamine receptor [2] and on D(2) dopamine receptor [3] were 25.1 nM and 398 nM, respectively.

As to `CCCCc1ccc(S(=O)(=O)Nc2ccc3c(c2)CCN(C)CC3)cc1`, the IC50 on Cytochrome P450 2C19 came out at 500 nM; at Cytochrome P450 2D6, 1600 nM; against Cytochrome P450 2C9 it was 47000 nM; on Cytochrome P450 3A4, 12000 nM; against Cytochrome P450 1A2, 23000 nM. Also, the Ki in series [1] is 5.01 nM; on D(3) dopamine receptor [2], 2 nM; on D(2) dopamine receptor [3], 31.6 nM; in series [4], 1.26 nM; in series [5], 10 nM.

For `CC(C)Oc1cc2c(cc1NS(=O)(=O)c1ccc(-c3ccc(Cl)cc3)cc1)CCN(C)CC2`, the inhibition constant Ki in series [1] is 15.8 nM; at D(3) dopamine receptor [2], 0.794 nM; on D(2) dopamine receptor [3], 6.31 nM; in series [4], 31.6 nM; in series [5], 39.8 nM.

With `CC(C)Nc1cc2c(cc1NS(=O)(=O)c1ccc(-c3ccc(Cl)cc3)cc1)CCN(C)CC2`, the IC50 against Cytochrome P450 2C19 stood at 25000 nM; at Cytochrome P450 2D6, 19000 nM; on Cytochrome P450 2C9, 17000 nM; on Cytochrome P450 3A4 it was 7500 nM; on Cytochrome P450 1A2, 51000 nM. Also, the ED50 in the series on Rattus norvegicus [6] turned out to be 20.6 mg/kg. Besides, the Ki in series [1] is 1.58 nM; on D(3) dopamine receptor [2], 3.16 nM; at D(2) dopamine receptor [3], 50.1 nM; in series [4], 7.94 nM; in series [5], 5.01 nM. Besides, the Activity result in the series with Rattus norvegicus [7] is recorded as “Not Active”. The EC50 in series [8] was greater than 12600 nM; in series [9] it was greater than 25100 nM; in [10], greater than 12600 nM; at D(2) dopamine receptor [11] it was greater than 10000 nM; at D(3) dopamine receptor [12] it was greater than 10000 nM.

`CN1CCc2ccc(NS(=O)(=O)c3ccc(-c4ccc(Cl)cc4)cc3)cc2CC1`: the IC50 at Cytochrome P450 2C19 stood at 16000 nM; against Cytochrome P450 2D6 it was 1500 nM; on Cytochrome P450 2C9, 45000 nM; against Cytochrome P450 3A4, 58000 nM; on Cytochrome P450 1A2, 25000 nM. The Ki was 200 nM in [1]; 15.8 nM at D(3) dopamine receptor [2]; 158 nM on D(2) dopamine receptor [3]; 5.01 nM in [4]; 20 nM in series [5].

For the molecule `CN1CCc2ccc(NS(=O)(=O)c3ccc(-c4ccc(F)c(Cl)c4)cc3)cc2CC1`, the Ki in [1] is 50.1 nM; at D(3) dopamine receptor [2] it was 3.98 nM; on D(2) dopamine receptor [3], 50.1 nM; in [4] it was 7.94 nM; in series [5] it was 31.6 nM.

Take `CN1CCc2cc(Br)c(NS(=O)(=O)c3ccc(-c4ccc(Cl)cc4)cc3)cc2CC1`: the Ki on D(3) dopamine receptor [2] was 5.01 nM; at D(2) dopamine receptor [3], 63.1 nM; in series [4], 50.1 nM; in series [5], 126 nM.

In the case of `CN1CCc2ccc(NS(=O)(=O)c3ccc(-c4ccc(C#N)cc4)cc3)cc2CC1`, the Ki was 794 nM in [1]; 15.8 nM at D(3) dopamine receptor [2]; 501 nM on D(2) dopamine receptor [3]; 25.1 nM in [4]; 100 nM in series [5].

`CN1CCc2cc(Cl)c(NS(=O)(=O)c3ccc(-c4ccc(Cl)cc4)cc3)cc2CC1`: the Ki was 31.6 nM in series [1]; 2.51 nM on D(3) dopamine receptor [2]; 39.8 nM at D(2) dopamine receptor [3]; 50.1 nM in [4]; 39.8 nM in series [5].

`CCCCc1ccc(S(=O)(=O)Nc2ccc3c(c2)CCNCC3)cc1`: the Ki in series [1] was 15.8 nM; on D(3) dopamine receptor [2], 15.8 nM; on D(2) dopamine receptor [3], 158 nM; in series [4], 2 nM; in [5] it was 50.1 nM.

Take `CCCCc1ccc(S(=O)(=O)Nc2ccc3c(c2)CNCC3)cc1`: the Ki was 12.6 nM in series [1]; 12.6 nM and 10 nM on D(3) dopamine receptor [2]; 794 nM and 1000 nM at D(2) dopamine receptor [3]; 25.1 nM in series [4]; 31.6 nM in series [5]. In addition, the “Log Ki” value is -7.9 in series [1], -7.6 in series [4] and -7.5 in series [5].

For `CN1CCc2ccc(NS(=O)(=O)c3ccc(-c4ccc(Cl)cc4)s3)cc2CC1`, the Ki on D(3) dopamine receptor [2] is 39.8 nM; at D(2) dopamine receptor [3], 398 nM; in [4], 3.98 nM; in [5], 126 nM.

As to `CCCCc1ccc(S(=O)(=O)Nc2ccc3c(c2)CN(C)C3)cc1`, the Ki is 5.01 nM in [1]; 20 nM on D(3) dopamine receptor [2]; 200 nM at D(2) dopamine receptor [3]; 5.01 nM in [4]; 10 nM in [5].

With `Cc1cc2c(cc1NS(=O)(=O)c1ccc(-c3ccc(Cl)cc3)cc1)CCN(C)CC2`, the Ki in series [1] was 20 nM; at D(3) dopamine receptor [2], 1.58 nM; on D(2) dopamine receptor [3], 15.8 nM; in [4] it was 15.8 nM; in series [5] it was 79.4 nM.

As to `CC(C)c1cc2c(cc1NS(=O)(=O)c1ccc(-c3ccc(Cl)cc3)cc1)CCN(C)CC2`, the Ki in series [1] was 5.01 nM; at D(3) dopamine receptor [2], 3.98 nM; on D(2) dopamine receptor [3] it was 100 nM; in series [4] it was 12.6 nM; in series [5] it was 15.8 nM.
